In patent US9943524B2, “Use of alkaloid in preparing pharmaceutical compositions for preventing or treating pulmonary fibrosis” (China Pharmaceutical University, priority 2014, dated 2018):

What was measured:
[1] = system: pulmonary fibrosis mice induced by bleomycin; experiment: Determination of mice mortality (Embodiment 4); type: in vivo, C57BL/6 mice
Experimental: (§1) Female C57BL/6 mice (eight-week-old) are established for models after 7 days, the time is set for the mice to adapt to the environment. After fasts for overnight, the mice are anaesthetized by 3% chloral hydrate and fixed. Sterilize and incise neck skin longitudinally as little injury as possible. Split fascia and muscle with tweezers longitudinally and expose the windpipe. Then, about 35 μl (3.5 mg/kg) bleomycin are injected into windpipe with microinjector. Put the mice upright rapidly and rotate the mice for 3˜5 minutes, so that bleomycin is able to enter into the pulmones uniformly. Observe the breathing of mice. Sterilize neck injury with 75% alcohol tampon and stitch the wound, then 1 drop or 2 drops of benzylpenicillin injection is/are dripped into the suture. Put the mice back into dry and clean cages, and feed them normally after waking up. Operations are done on operating table at about […]. Physiological saline using in injection is injected into windpipe of sham operation group.
(§2) Model animals are divided into prevention groups and treatment groups, then drugs are given to the two groups respectively. According to internationally methods of drug administration, drugs are given continuously to the prevention groups by means of intragastric administration from the second day after successfully establishing model to the 14th day, and drugs are given continuously to treatment groups by means of intragastric administration from the 8th day after successfully establishing model to the 21th day. Groups and dosage regimen are shown in tab.1.
From the 0th day (the day when the model is established) to 14th day, drugs are given continuously to prevention groups. From the 8th day after successfully establishing model to 21th day, drugs are given continuously to treatment groups. Statistical analysis of death of animals in each group is carried on every day and the survival rate of animals in each group is calculated. Results are shown in tab.2.

TGF-β1 [2] = settings: cited from earlier work
[3] = cited from earlier work
[4] = system: pulmonary fibrosis mice induced by bleomycin; experiment: Activity of 8 alkaloids and pentoxyverine against pulmonary fibrosis in mice (Embodiment 3); type: in vivo, C57BL/6 mice; settings: intragastric from first day after model to 21th day; alkaloids and pentoxyverine 30 mg/kg (FIG. 1B, 1C)
Experimental: as §1
Experimental mice are randomly divided into 12 groups: 10 mice in model group, 10 mice in pentoxyverine group, and 5 mice in any other group. Group 1 is sham operation group, group 2 is model group, group 3 is pentoxyverine group, group 4 is positive drug pirfenidone group, groups 5-12 are compounds I-VIII administration group respectively. Models of groups 2-12 are established by using bleomycin with the same method used in embodiment 2. From the first day after successfully establishing model, 30 mg/kg pentoxyverine and 300 mg/kg pirfenidone are given to group 3 and group 4 by means of intragastric administration respectively. 30 mg/kg compounds I-VIII are given to groups 5-12 also by means of intragastric administration respectively. Besides, same doses of solvent are given to sham operation group and model group until the 21th day. After the last intragastric administration, the mice are killed to collect the lung tissue, and the right lobule is used for determining the content of hydroxyproline, while the left lobule is used for preparing pathological sections.

[5] = system: pulmonary fibrosis mice induced by bleomycin; experiment: Detection of the mice lung index (Embodiment 4); type: in vivo, C57BL/6 mice; settings: 30 and 60 mg/kg, prevention groups and treatment groups, versus model group (FIG. 2); lower dose better in prevention groups
Experimental: as §1, §2
After the last intragastric administration, the mice are killed to strip and weigh the lung, and the lung index is the lung weight divided by mouse weight (FIG. 2). […] In general, the 3 compounds have better effect in decreasing the mortality of mice than the positive drug pirfenidone.

[6] = system: pulmonary fibrosis mice induced by bleomycin; experiment: HE stained pathological evaluation and inflammation scores (Embodiment 4); type: in vivo, C57BL/6 mice
Experimental: as §1, §2
After the last intragastric administration, the mice are anaesthetized and killed to collect the lung tissue. Immerse the left lobule in 10% formalin, and embed it by paraffin after being fixed, then cut it into slices to observe the pathological changes by HE staining. As is shown in FIG. 3, structures of lobules of sham operation group are normal and the alveolar walls are complete without inflammation and fibrosis pathological changes. Obvious inflammation injury and masses of tissue begin to appear in lung of mice in model group, then the normal lung tissue disappears and alveolar is blocked. […] The groups with lower dose (30 mg/kg) of the 3 compounds show better effect than the groups with higher dose. The pulmonary inflammation disappears and alveolar structure is clear in groups with lower dose.
Inflammatory classification semi quantitative statistics analysis is made according to results of HE staining. Grade 0 represents normal tissue or minimal inflammation change. Grade 1 (+) represents mild to moderate inflammation change, and lung tissue without obvious damage. Grade 2 (++) represents moderate to severe inflammation injury, and alveolar septum is thickened to form masses of tissue, or lung tissue with damage caused by partial area inflammation. Grade 3 (+++) represents severe inflammation injury, and structure of restricted regions in lung tissue is severely damaged, thus resulting in obliteration. […] The groups with lower dose show better effect than the groups with higher dose. In general, the 3 compounds have better effect in decreasing the pulmonary inflammation than the positive drug pirfenidone.

[7] = system: pulmonary fibrosis mice induced by bleomycin; experiment: Masson stained pathological evaluation and imaging analysis of collagen (Embodiment 4); type: in vivo, C57BL/6 mice
Experimental: as §1, §2
Masson staining is a method aiming at specific staining of fibrillar collagen. After the last intragastric administration, the mice are anaesthetized and killed to collect the lung tissue. Immerse the left lobule in 10% formalin, and embed it by paraffin after being fixed, then is cut it into slices to observe the collagen deposition by Masson staining. Semi quantitative analysis is made by using Image-Pro Plus6.0. Integrated optical density (IOD) of collagen in each visual field is measured after Masson staining. 5 samples are studied in each group and 5 visual fields are picked out from each group. Statistics analysis is made by calculating mean value which is considered as relative amount of collagen in each group.

[8] = system: pulmonary fibrosis mice induced by bleomycin; experiment: Content determination of hydroxyproline in lung tissue (Embodiment 4); type: in vivo, C57BL/6 mice; settings: 30 mg/kg and 60 mg/kg, prevention groups and treatment groups (FIG. 7); lower dose slightly better
Experimental: as §1, §2
Hydroxyproline mainly exists in collagen protein, but there is only a very small amounts in elastin proteins and it cannot found in other proteins. Therefore the content of collagen protein can be indicated by measuring the content of hydroxyproline, so as to evaluate the degree of pulmonary fibrosis. Method of test kit (which is purchased from Nanjing Jiancheng Biological Technology Co., Ltd.) according to specification is used in determination of hydroxyproline. Results can be seen in FIG. 7.

TGF-β1 [9] = experiment: ELISA content determination of TGF-β1 in mice lung tissue (Embodiment 4); type: in vivo, C57BL/6 mice; settings: 30 mg/kg and 60 mg/kg, prevention groups and treatment groups, versus model group (FIG. 8); lower dose more effective
Experimental: as §1, §2
TGF-β1 is a universally recognized strong pro-fibrotic cytokine. It can stimulate the cells to synthesize and secrete extracellular matrix as well as exchange the activity of matrix-degrading enzyme component and directly increase the deposition of ECM. The progress of pulmonary fibrosis can be slowed down by decreasing the content of TGF-β1 in lung tissue. Elisa test kit (which is purchased from Shanghai Excell Biological Technology Co., Ltd.) according to specification is used in the determination of TGF-β1 in mice lung tissue. Results can be seen in FIG. 8.

[10] = system: cough of guinea pig induced by citric acid; settings: cited from earlier work
cough reflex pathway = settings: in vivo; cited from earlier work

## Cc1ccc(=O)n(-c2ccccc2)c1 [Pirfenidone, pirfenidone, reference compound]
[1]; prevention groups, 300 mg/kg intragastric to the 14th day
  Survival rate: 70%
[1]; prevention groups, 300 mg/kg intragastric to the 14th day, 10 animals
  Mortality (number of dead animals): 3
[1]; treatment groups, 300 mg/kg intragastric from the 8th to the 21th day
  Survival rate: 67%
[1]; treatment groups, 300 mg/kg intragastric from the 8th to the 21th day, 18 animals
  Mortality (number of dead animals): 6
TGF-β1 [2]
  inhibition of pro-fibrogenic factors: can inhibit the pro-fibrogenic factors such as TGF-β1
[3]
  clinical side effects: photosensitization

## CC[C@@H]1[C@H]2CCCCN3[C@H]2[C@@H](C[C@H]3[C@@H]2C[C@H](C)C(=O)O2)[C@H]2[C@@H]1OC(=O)[C@H]2C [Compound VII, Neotuberostemonine]
[4]
  pulmonary inflammation, injury and fibrosis in HE and Masson stained pathological sections: recover to nearly normal structure
[1]; prevention groups, 30 mg/kg intragastric to the 14th day
  Survival rate: 100%
[1]; prevention groups, 30 mg/kg intragastric to the 14th day, 10 animals
  Mortality (number of dead animals): 0
[1]; prevention groups, 60 mg/kg intragastric to the 14th day
  Survival rate: 80%
[1]; prevention groups, 60 mg/kg intragastric to the 14th day, 10 animals
  Mortality (number of dead animals): 2
[1]; prevention groups, lower dose (30 mg/kg) better
  protective effect on model mice (mortality), comparison among compounds: more effective than compound VIII
[1]; treatment groups, 30 mg/kg intragastric from the 8th to the 21th day
  Survival rate: 89%
[1]; treatment groups, 30 mg/kg intragastric from the 8th to the 21th day, 18 animals
  Mortality (number of dead animals): 2
[1]; treatment groups, 60 mg/kg intragastric from the 8th to the 21th day
  Survival rate: 78%
[1]; treatment groups, 60 mg/kg intragastric from the 8th to the 21th day, 18 animals
  Mortality (number of dead animals): 4
[5]
  lung index (lung weight divided by mouse weight): significantly decrease the lung index
[6]; 30, 60 mg/kg, prevention and treatment groups (FIG. 4), lower dose better
  lung tissue inflammation scores (HE stained, grade 0-3): significantly decrease the pulmonary inflammation
[6]; prevention groups and treatment groups (FIG. 3), lower dose (30 mg/kg) better than higher dose
  pulmonary inflammation and injury, HE stained pathological changes: significantly alleviate the pulmonary inflammation
[7]; 30, 60 mg/kg, prevention and treatment groups (FIG. 5, 6), lower dose better in prevention, higher dose better in treatment
  collagen deposition (Masson staining, integrated optical density): significantly decrease collagen deposition
[7]; in general, Masson staining
  effect in decreasing the collagen deposition, comparison among compounds: slightly better than that of compound VIII
[8]
  content of hydroxyproline in lung tissue: effectively decrease the content of hydroxyproline
TGF-β1 [9]
  content of TGF-β1 in lung tissue (ELISA): effectively decrease the content of TGF-β1
[10]
  antitussive effect: very good antitussive effect
Cough reflex pathway
  antitussive activities, comparison among stemona tuberosa alkaloids: similar
